Active and inactive are the calls of the source.
Assays:
[1] = P. falciparum Dd2 growth inhibitors, dose response, SYBR Green, cherry-picked samples (AID 1159567); type: functional, cell-based
[2] = toxicity to human hepatoma HepG2 cells – cell-based, cherry-picked samples, cytotoxicity control, dose response (AID 1159577); type: functional
[3] = cells; type: functional, cell-based
[4] = biological target: T1, Nuclear receptor subfamily 0 group B member 1 (Homo sapiens, UniProt P51843); type: functional, cell-based;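 further: HEK293T cells transfected with SF-1 and DAX-1 plus StAR promoter luciferase reporter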
T1 sequence (P51843 whole entry): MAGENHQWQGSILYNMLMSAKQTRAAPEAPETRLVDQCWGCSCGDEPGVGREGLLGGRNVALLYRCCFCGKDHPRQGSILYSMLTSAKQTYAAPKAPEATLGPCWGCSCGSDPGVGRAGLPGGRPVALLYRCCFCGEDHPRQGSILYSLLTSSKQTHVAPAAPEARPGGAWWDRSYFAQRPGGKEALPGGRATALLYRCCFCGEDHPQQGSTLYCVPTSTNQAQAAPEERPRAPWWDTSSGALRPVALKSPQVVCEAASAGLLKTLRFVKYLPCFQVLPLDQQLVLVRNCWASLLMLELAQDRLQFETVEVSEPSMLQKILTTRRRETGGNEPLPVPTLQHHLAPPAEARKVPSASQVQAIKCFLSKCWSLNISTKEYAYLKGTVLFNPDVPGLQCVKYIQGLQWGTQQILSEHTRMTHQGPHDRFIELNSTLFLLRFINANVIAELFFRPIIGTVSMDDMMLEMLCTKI

[5] = biological target: Estrogen receptor beta (Homo sapiens, UniProt Q92731);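 further: recombinant ER-beta bound to coactivator SRC1 peptide in presence of estradiol agonist; inhibitors block coactivator peptide binding and lower the FRET signal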
[6] = blockers of HIV-1 envelope-mediated cell-cell fusion – cherry-pick, dose response (AID 652057); type: functional, cell-based
[7] = off-target signal loss in HeLa-CEM21 co-culture – HeLa F-luc CTL cells, cherry-picked, counter-screen for HIV-1 Env fusion inhibitor project, dose response (AID 652040); type: functional, cell-based;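 further: potency for signal decrease marking cytotoxic or nonspecific inhibition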
[8] = HIV-1 AD8 envelope cell-cell fusion blockers – cherry-pick, dose response (AID 652062); type: functional, cell-based;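 further: luciferase signal from cell-cell fusion driven by HIV-1 clade B AD8 Env; potency is for inhibitors of fusion seen as a drop in luminescence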
[9] = blockers of HIV-1 ZM109 envelope-driven cell-cell fusion – HeLa effector, CEM target cells, luciferase, cherry-pick, dose response (AID 652058); type: functional, cell-based;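 further: luciferase signal from HIV-1 Env mediated cell-cell fusion of effector and target cells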
[10] = biological target: Protein-tyrosine kinase 2-beta (Homo sapiens, UniProt Q14289);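 further: potency of inhibitors of PYK2 kinase phosphorylation of poly-GT substrate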
[11] = biological target: T2, Trace amine-associated receptor 1 (Homo sapiens, UniProt Q96RJ0); assay: Fluorescence-based cell-based high throughput dose response assay to identify agonists of the human trace amine associated receptor 1 (TAAR1).; type: functional
T2 sequence (Q96RJ0 whole entry): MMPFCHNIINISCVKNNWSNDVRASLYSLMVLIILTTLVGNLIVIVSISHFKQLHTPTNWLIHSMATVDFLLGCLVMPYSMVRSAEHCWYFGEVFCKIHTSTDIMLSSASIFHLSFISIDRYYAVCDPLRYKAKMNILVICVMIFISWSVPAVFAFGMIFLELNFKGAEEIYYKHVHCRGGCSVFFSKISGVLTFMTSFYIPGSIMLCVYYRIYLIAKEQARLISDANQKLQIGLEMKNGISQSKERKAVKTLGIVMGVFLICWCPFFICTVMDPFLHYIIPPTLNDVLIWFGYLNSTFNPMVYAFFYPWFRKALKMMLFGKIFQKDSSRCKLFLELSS

[12] = cells; type: functional, cell-based; remark: listed apart in the source
[13] = biological target: T2, Trace amine-associated receptor 1; assay: Counterscreen for agonists of the human trace amine associated receptor 1 (hTAAR1): Fluorescence-based cell-based high throughput dose response assay to identify hTAAR1 agonist that also desensitize TAAR1 receptor response.; type: functional
[14] = cells; type: functional, cell-based; remark: listed apart in the source
[15] = rise of 4N DNA cells, HeLa – IC50, dose response (AID 1117351); type: functional, cell-based
[16] = viability loss in HepG2 hepatoma cells – cell-based, ATP luminescence, cherry-pick, activator set 2, cytotoxicity control, dose response (AID 1053143); type: functional
[17] = cells
[18] = biological target: Major prion protein (Homo sapiens, UniProt P04156); type: functional, cell-based
[19] = HEK-293T viability loss after treatment – luminescence, T-cell screen hits, cytotoxicity control for TCR NF-kB inhibitor project, dose response (AID 489026); type: functional, cell-based;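 further: cells exposed to compound about 14 hours before the viability readout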
[20] = biological target: T3, COUP transcription factor 2 (Homo sapiens, UniProt P24468); assay: Luminescence-based cell-based high throughput dose response assay to identify inhibitors of COUP-TFII (NR2F2).; type: functional;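 further: HEK293 cells transiently cotransfected with COUP-TFII expression vector and reporter; luciferase reporter luminescence driven by COUP-TFII from the pX2-168 reporter plasmid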
T3 sequence (P24468 whole entry): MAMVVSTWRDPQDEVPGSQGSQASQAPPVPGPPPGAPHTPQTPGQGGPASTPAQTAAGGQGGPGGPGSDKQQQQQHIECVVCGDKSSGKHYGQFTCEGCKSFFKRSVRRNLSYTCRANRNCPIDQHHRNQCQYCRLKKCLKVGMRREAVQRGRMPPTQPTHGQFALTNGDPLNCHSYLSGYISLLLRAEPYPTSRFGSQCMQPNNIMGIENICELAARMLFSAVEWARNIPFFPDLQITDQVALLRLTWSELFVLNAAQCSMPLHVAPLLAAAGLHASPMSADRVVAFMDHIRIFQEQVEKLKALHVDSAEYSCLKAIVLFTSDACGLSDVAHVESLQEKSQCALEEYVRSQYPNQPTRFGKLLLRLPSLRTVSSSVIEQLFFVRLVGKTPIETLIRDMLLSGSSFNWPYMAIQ

[21] = biological target: Beta-galactosidase (Escherichia coli, UniProt Q8VNN2); assay: Dose response counterscreen for EBI2 assay utilizing the enzyme, b-galactosidase.; type: functional

## CCCNC(=O)N1CC2(CCN(S(=O)(=O)c3ccc(OC)cc3)CC2)c2c(n(C)c3cc(OC)ccc23)[C@@H]1CO
[1]
  AC50: 3.11 µM (active)
[2]
  AC50: > 39 µM (inactive)

## O=C(NCC1(N2CCCCC2)CCCCC1)c1cccc(S(=O)(=O)Nc2ccc(F)cc2)c1
[3]
  IC50: > 67.5 µM (inactive)
[4]
  IC50: > 67.5 µM (inactive)

## O=S(=O)(O)c1nc2ccccc2n1Cc1ccccc1
[5]
  IC50: > 50 µM (not active)

## COc1ccc([C@@H]2[C@@H]3C(=O)N(C(C)(C)C)C(=O)[C@@H]3[C@]3(CC(C)C)C(=O)N(c4ccccc4)C(=O)N23)cc1
[6]
  AC50: 0.737 µM (active)
[7]
  AC50: 0.732 µM (active)
[8]
  AC50: 1.88 µM (active)
[9]
  AC50: 1.13 µM (active)

## COc1ccc(-c2cc3ccccc3oc2=O)cc1NC(=O)c1ccc(Br)o1
[10]
  IC50: 1.57 µM (active)

## COc1cccc(C(=O)N[C@H](C(=O)N2CCC[C@H]2C(=O)NCCc2ccccc2Cl)c2ccccc2)c1
[11]
  EC50: 6.46 µM (active)
[12]
  EC50: > 29.9 µM (inactive)
[13]
  IC50: 7.36 µM (active)
[14]
  IC50: > 29.9 µM (inactive)

## CC[C@@]1(O)C(=O)OCc2c1cc1n(c2=O)Cc2c-1nc1ccccc1c2/C=N/OC(C)(C)C
[15]
  IC50: > 10 µM (inactive)

## CCc1ccc2nc(SCC(=O)N(CC)CC)c(C#N)cc2c1
[10]
  IC50: > 69.5 µM (not active)

## COc1ccc(C(=O)COc2ccc(C)cc2NC(C)=O)cc1
[16]
  AC50: > 52 µM (inactive)

## COc1cc(C(=O)Nc2scc(-c3ccc(C)cc3)c2C(=O)O)cc(OC)c1OC
[17]
  IC50: > 138 µM (inactive)
[18]
  IC50: 4.4 µM (active)

## Cc1cc(-n2c(C)cc(C(=O)CSc3ncnc4ccccc34)c2C)no1
[19]
  IC50: > 80 µM (inactive)
[20]
  IC50: 6.08 µM (active)

## O=C1CC2(CCN(C(=O)COc3ccc(Cl)cc3)CC2)Oc2ccccc21
[21]
  IC50: > 80 µM (inactive)

## N#C[C@@H]1[C@H](c2ccc(C#CCC3CCCC3)cc2)[C@H](CO)N1C(=O)c1ccccn1
[1]
  AC50: 3.37 µM (active)
[2]
  AC50: 26 µM (active)

## O=C(CCN1CCCC1Cc1ccccc1)c1ccc2c(c1)OCCO2 (stereo not drawn)
[11]
  EC50: 0.3 µM (active)
[12]
  EC50: > 29.9 µM (inactive)
[13]
  IC50: > 9.97 µM (active)
[14]
  IC50: > 29.9 µM (inactive)
